Test results taken from publication PMC4360945, “In silico discovery and validation of potent small-molecule inhibitors targeting the activation function 2 site of human oestrogen receptor α” (Breast Cancer Research : BCR, 2015).
“And” between values parts separate entries of the source, which are not always exact repeats. Identical values can stand only once. “Also recorded” adds a separate entry of the source.

What was measured:
[1] = biological target: T1, ERα AF2 site (GST-tagged ER-LBD) (Homo sapiens, UniProt P03372); assay: TR-FRET ERα coactivator (PGC-1α peptide) displacement assay; format: biochemical
T1 construct: glutathione S-transferase (GST)-tagged ER-LBD (7.25 nM); purchased Life Technologies PV4544
T1 sequence (P03372 311-547 limits assumed): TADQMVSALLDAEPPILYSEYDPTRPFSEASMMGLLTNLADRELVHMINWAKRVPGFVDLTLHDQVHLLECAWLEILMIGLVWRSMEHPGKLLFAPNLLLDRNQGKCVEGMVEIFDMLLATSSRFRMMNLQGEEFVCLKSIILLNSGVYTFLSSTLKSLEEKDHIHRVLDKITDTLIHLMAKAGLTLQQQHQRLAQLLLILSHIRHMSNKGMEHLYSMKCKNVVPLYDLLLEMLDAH
Protocol: Peptide displacement was assessed with the LanthaScreen TR-FRET ER Alpha Coactivator Assay kit (PV4544; Life Technologies) as per the instructions of the manufacturer. The compounds were tested in the range of 0.1 to 50 μM, and cold PGC-1α was added at threefold dilutions ranging from 1.8 to 50 μM.
Briefly, a twofold serial dilution of the test compounds was prepared at 100× final concentration in DMSO. The compounds were diluted 50-fold in complete assay buffer (assay buffer containing 5 mM dithiothreitol) to get a 2× final concentration and 2% DMSO. […] Ten microlitres of the diluted test compounds were added to a black, flat-bottomed, 384-well plate, followed by addition of 5 μl of the 4× ER-LBD mix.
Tb-labelled anti-GST antibody indirectly labels the ERα LBD by binding to a GST tag on the protein. […] The close proximity of fluorescein-PGC-1α to the terbium-labelled antibody causes an increase in the TR-FRET signal.

ERα LBD = biological target: T2, ERα LBD (Homo sapiens, UniProt P03372); assay: Bio-layer interferometry assay; format: binding; details: 3 to 100 μM
T2 construct: ERα LBD (peptides 302 to 552); made in house; host or cells: Escherichia coli BL21
T2 sequence (P03372 302-552): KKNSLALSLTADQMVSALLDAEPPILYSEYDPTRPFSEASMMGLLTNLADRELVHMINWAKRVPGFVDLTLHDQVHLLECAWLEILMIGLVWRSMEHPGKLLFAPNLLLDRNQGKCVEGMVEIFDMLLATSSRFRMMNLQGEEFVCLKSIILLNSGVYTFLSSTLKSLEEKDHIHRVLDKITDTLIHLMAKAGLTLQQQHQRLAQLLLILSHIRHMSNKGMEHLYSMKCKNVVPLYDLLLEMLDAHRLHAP
Text: The direct reversible interaction between small molecules and the ER-α was quantified by BLI using an Octet RED apparatus (Pall ForteBio, Menlo Park, CA, USA). The LDB of the biotinylated oestrogen receptor-alpha (bERα) was produced in situ with AviTag technology (Avidity, Aurora, CO, USA). […] A six-residue histidine tag was incorporated at the C-terminus of the ERα LBD for purification of the protein. […] The bacteria were then lysed by sonication, and the resulting lysate was purified by immobilised metal ion affinity chromatography with nickel agarose beads and cation exchange chromatography (HiTrap SP; GE Healthcare Life Sciences, Pittsburgh, PA, USA). […] The compounds were dissolved in the assay buffer in a twofold dilution series ranging from 3.1 to 100 μM.
The ERα LBD was biotinylated on the AviTag by a biotin ligase expressed by the bacterial cells cotransformed with the biotin ligase plasmid pBirACm. The bERα LBD was purified by nickel-affinity chromatography and immobilised on streptavidin-coated biosensor tips. The interaction between small molecule and protein was measured in real time as a shift in the interference pattern of the incident light. A response profile was generated on the Octet RED system.

MCF7 cells = assay: MTS assay, MCF7; format: cell-based, human; details: MCF7, 96 h, 1 nM E2; read-out: IC50, growth inhibition
Protocol: (§1) Cells were seeded in 96-well plates at a density of 5 × 10^3 cells/well. MCF7, […]-MB-453 and HeLa cells were seeded in their respective media. […] After 96 hours, 30 μl of MTS reagent (CellTiter 96 AQueous One Solution Cell Proliferation Assay reagent; Promega) were added and incubated for 90 minutes at 37°C in 5% CO2. The production of formazan was measured at 490 nm.

TamR3 cells = assay: MTS assay, TamR3; format: cell-based, human
Protocol: as §1

TamR6 cells = assay: MTS assay, TamR6; format: cell-based, human
Protocol: as §1

[2] = tested on: pS2, cathepsin D and CDC2 mRNA; assay: Quantitative RT-PCR of oestrogen-responsive genes in MCF7 cells; format: cell-based, human; details: MCF7, 24 h
Protocol: mRNA levels were analysed by quantitative RT-PCR (qRT-PCR). For this purpose, serum-starved MCF7 cells were seeded onto six-well plates at a density of 6 × 10^5 cells/well. […] RNA was isolated after 24 hours with TRIzol reagent (Life Technologies) and purified with the RNeasy Mini Kit (QIAGEN, Valencia, CA, USA). The purified mRNA was quantified using a NanoDrop spectrophotometer (NanoDrop, Wilmington, DE, USA). RNA (0.5 μg) was reverse-transcribed using the iScript synthesis kit (Bio-Rad Laboratories, Hercules, CA, USA). cDNA product (100 ng) was added to the primer mix. The final concentration of the primers was 5 pM. The sequences of the primers used in the qRT-PCR experiments were as follows: pS2, forward [NT] and reverse [NT]; cathepsin D, forward [NT] and reverse [NT]; CDC2, forward [NT] and reverse [NT]; glyceraldehyde 3-phosphate dehydrogenase (GAPDH), forward [NT] and reverse [NT]. The fold change in expression of the gene was calculated using the 2^-ΔΔCt method with GAPDH as the internal control.

[3] = tested on: pS2, cathepsin D and CDC2 protein; assay: Western blotting of oestrogen-responsive gene products in MCF7 cells; format: cell-based, human; details: MCF7, 24 h, 1 nM E2; 12 and 6 μM
Protocol: MCF7 cells were serum-starved in phenol red–free RPMI 1640 containing 10% CSS for 5 days. […] After 24 hours, the medium was aspirated, and the cells were washed with ice-cold phosphate-buffered saline. Cells were lysed in 1× radioimmunoprecipitation assay buffer containing one tablet of cOmplete protease inhibitor cocktail (Roche Life Science, Indianapolis, IN, USA). Cell debris was pelleted by centrifugation at 15,000 g for 10 minutes at 4°C. The supernatants were collected and quantified using the BCA assay. In each case, 25 μg of protein was loaded onto 15% (v/v) SDS-PAGE gels, separated and transferred to polyvinylidene fluoride membrane. Membranes were incubated with pS2, cathepsin D and CDC2 antibodies or control α-actin antibody. Bound antibodies were detected using horseradish peroxidase–conjugated secondary antibodies. Chemiluminescence was detected with an Amersham ECL detection kit (GE Healthcare Life Sciences), and bands were visualised using the G:BOX imager (Syngene, Frederick, MD, USA).

[4] = biological target: T3, oestrogen receptor-alpha (ERα) (Homo sapiens, UniProt P03372); assay: Transiently transfected E2-responsive luciferase reporter in TamR3 cells; format: cell-based; parameters: endogenous in cells; details: TamR3, 1 nM E2; read-out: IC50, transcriptional inhibition of transiently transfected E2-responsive luciferase reporter
T3 sequence (P03372 1-595): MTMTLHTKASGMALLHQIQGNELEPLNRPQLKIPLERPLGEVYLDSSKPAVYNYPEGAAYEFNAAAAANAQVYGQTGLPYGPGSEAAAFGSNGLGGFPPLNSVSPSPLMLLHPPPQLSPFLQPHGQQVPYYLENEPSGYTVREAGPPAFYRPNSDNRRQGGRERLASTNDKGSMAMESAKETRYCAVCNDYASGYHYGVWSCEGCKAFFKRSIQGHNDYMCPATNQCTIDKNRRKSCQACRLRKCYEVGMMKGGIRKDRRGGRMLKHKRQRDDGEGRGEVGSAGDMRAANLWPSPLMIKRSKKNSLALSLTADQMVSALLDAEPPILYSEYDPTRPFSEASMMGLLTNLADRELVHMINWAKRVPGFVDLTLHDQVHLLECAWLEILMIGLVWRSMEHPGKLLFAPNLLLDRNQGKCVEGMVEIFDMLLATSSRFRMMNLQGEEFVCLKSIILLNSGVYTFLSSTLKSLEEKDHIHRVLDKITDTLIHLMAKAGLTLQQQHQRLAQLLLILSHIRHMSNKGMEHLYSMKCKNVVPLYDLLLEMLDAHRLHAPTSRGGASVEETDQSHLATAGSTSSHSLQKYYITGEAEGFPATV
Protocol: (§2) For transient transfection, we used pGL2.TATA.Inr.luc plasmid, which contains three copies of vitellogenin oestrogen response element (ERE) upstream of the TATA promoter (3X ERE TATA luc; Addgene plasmid 11354). This is the same plasmid used to construct pGL2.TATA.Inr.luc.neo, used to create the stable cell line T47D-KBluc.
(§3) TamR3 and TamR6 cells were grown in phenol red–free RPMI 1640 supplemented with 10% CSS and 1 μM tamoxifen. The cells were seeded on a 96-well plate (2 × 10^4 cells/well). After 24 hours, the cells were cotransfected with 50 ng each of the ERα-responsive luciferase plasmid and a constitutive Renilla reporter (to normalise for variations in transfection efficiency) using TransIT-2020 reagent (Mirus Bio, Madison, WI, USA). […] The compounds were added in a twofold dilution ranging from 0.1 to 50 μM. […] The medium contained 0.1% (v/v) ethanol and 0.1% (v/v) DMSO. Twenty-four hours after treatment, the medium was aspirated and the cells were lysed by adding 50 μl of 1× passive lysis buffer (Promega). Luciferase activities were assayed using the Dual-Luciferase Reporter Assay System (Promega).

[5] = biological target: T3, oestrogen receptor-alpha (ERα); assay: Transiently transfected E2-responsive luciferase reporter in TamR6 cells; format: cell-based; parameters: endogenous in cells; details: TamR6, 1 nM E2; read-out: IC50, transcriptional inhibition of transiently transfected E2-responsive luciferase reporter
Protocol: as §2, §3

[6] = biological target: T3, oestrogen receptor-alpha (ERα); assay: Luciferase oestrogen receptor-alpha transcriptional assay in T47D-KBluc cells; format: cell-based; parameters: endogenous in cells; host or cells: T47D-KBluc
Protocol: ERα-positive T47D-KBluc human BCa cells were grown in phenol red–free RPMI 1640 supplemented with 10% CSS for 5 days. The cells were seeded on a 96-well plate (2 × 10^4 cells/well). […] The test compounds were screened at two concentrations: 12 μM and 30 μM. […] The medium contained 0.1% (v/v) ethanol and 0.1% (v/v) DMSO. Twenty-four hours after treatment, the medium was aspirated and the cells were lysed by adding 50 μl of 1× passive lysis buffer (Promega, Madison, WI, USA). The plates were placed on a shaker at room temperature for 15 minutes and then subjected to two freeze–thaw cycles to help lyse the cells. Next, 20 μl of the lysate from each treatment was transferred onto a white, 96-well, flat-bottomed plate (Corning Life Sciences, Corning, NY, USA), and the luminescent signal was measured after adding 50 μl of the luciferase assay reagent (Promega) on a TECAN M200 PRO microplate reader (Tecan, Männedorf, Switzerland). Differences in growth were normalised against total protein concentration, which was measured by bicinchoninic acid (BCA) assay.

[7] = biological target: T4, biotinylated oestrogen receptor-alpha ligand-binding domain (bERα LBD) (human, UniProt P03372 302-552, biotin on the AviTag); assay: BLI; Octet RED; bERα LBD bound to Super Streptavidin Sensors; 20 mM Tris pH 7.5, 500 mM NaCl, 0.2 mM TCEP, 0.02 mM E2, 5% glycerol, 5% DMSO; PGC-1α peptide in solution as positive control; details: both partners purified
T4 construct: Assay buffer held 0.02 mM E2
T4 sequence (looked up): T2 sequence (P03372 302-552)

## CCOc1cc(Br)cc(/C=N/NC(=O)c2ccc3c(c2)OCCO3)c1O [VPC-16230]
[1]; TR-FRET, read-out: IC50, displacement of PGC-1α peptide from the AF2 site
  IC50: 2.98 µM
[1]; fluorescein-PGC-1α 250, 500, 1000 nM, compounds 0.05 to 400 μM
  Shift of dose-response curve with increasing fluorescein-PGC-1α: rightward shift
ERα LBD
  Binding to ERα LBD by BLI: direct and reversible interaction
MCF7 cells
  IC50: 7.8 µM
TamR3 cells; TamR3, 96 h, 1 nM E2, read-out: IC50, growth inhibition
  IC50: 3.4 µM
TamR6 cells; TamR6, 96 h, 1 nM E2, read-out: IC50, growth inhibition
  IC50: 6.3 µM
[2]; in the absence of E2, 12, 6 and 3 μM
  mRNA levels of pS2, cathepsin D and CDC2: did not significantly inhibit; also recorded: did not significantly decrease
[2]; in the presence of 1 nM E2, 12 and 6 μM
  mRNA levels of pS2, cathepsin D and CDC2: considerably reduced; also recorded: significantly decreased
[3]
  Protein levels of pS2, cathepsin D and CDC2: decreased
[4]
  IC50: 4.7 µM
[5]
  IC50: 4.7 µM
[6]; T47D-KBluc cells, 1 nM E2, 24 h, read-out: IC50, inhibition of ERα transcriptional activity (luciferase reporter)
  IC50: 5.81 µM and 5.8 µM
[6]; T47D-KBluc, E2 1, 10, 50, 100 nM
  Shift of the IC50 curve in the presence of higher concentrations of E2: did not show any significant shift
[6]; read-out: IC50, luciferase assay at varied E2, T47D-KBluc, E2 1 nM
  IC50: 6.1 µM
[6]; read-out: IC50, luciferase assay at varied E2, T47D-KBluc, E2 100 nM
  IC50: 6.5 µM

## CC/C(=C(\c1ccccc1)c1ccc(OCCN(C)C)cc1)c1ccccc1 [tamoxifen, reference compound]
TamR3 cells; TamR3, 1 μM in the medium
  Growth in the presence of 1 μM tamoxifen: not affected
TamR6 cells; TamR6, 1 μM in the medium
  Growth in the presence of 1 μM tamoxifen: not affected

## cold PGC-1α peptide: Cold PGC-1α coactivator peptide (EAEEPSLLKKLLLAPANTQ), known AF2-interacting control [reference compound]
[1]; 1.8 to 50 μM
  FRET signal with increasing concentration of cold peptide: dose-dependent decrease
ERα LBD
  Binding to ERα LBD by BLI: direct and reversible interaction

B1: Cold peroxisome proliferator-activated receptor gamma, coactivator 1-alpha (PGC-1α) peptide (peptide)
peptide: EAEEPSLLKKLLLAPANTQ
notes: also called cold PGC-1α peptide; cold PGC-1α; source: synthetic peptide (Elim Biopharmaceuticals)
[7]
  binding result: binds
